Experimental data: publication PMC10276294, “Regulatory ligand binding in plant chalcone isomerase–like (CHIL) proteins” (The Journal of Biological Chemistry, 2023)
Where “and” joins values, the source holds several entries; their conditions need not be identical. Identical values can stand only once.

What was measured:
[1] = biological target: T1, PpCHIL-A L188W (Physcomitrium patens, UniProt A9T3E4, L188W); assay: Quercetin fluorescence enhancement assay, PpCHIL-A L188W; format: binding, Physcomitrella patens
Protocol: (§1) Fluorescence enhancement of quercetin (Thermo Scientific) was measured in the presence of VvCHIL and PpCHIL-A. The assays were performed in a buffer containing 25 mM Tris (pH 8.0), 150 mM NaCl, and 2% dimethyl sulfoxide (DMSO), used to solubilize quercetin. Protein concentrations were varied from 4.3 to 2250 μM relative to a constant concentration of quercetin (10 μM). After a binding equilibration period of 10 min at 25 °C, changes to the relative fluorescence intensity of quercetin (excitation 485 nm and emission 545 nm) were measured using a Vector X3 multimode plate reader (PerkinElmer). Background fluorescence from identical samples not containing quercetin was subtracted, and change-in-fluorescence data were fit using GraphPad Prism 9 (GraphPad Sofware, Inc) to a single-site binding equation in order to determine equilibrium dissociation constant (Kd) values.

[2] = biological target: T2, VvCHIL Q141A (Vitis vinifera, UniProt F6HC36, Q141A); assay: Quercetin fluorescence enhancement assay, VvCHIL Q141A; format: binding
Protocol: as §1

[3] = biological target: T3, VvCHIL W221L (Vitis vinifera, UniProt F6HC36, W221L); assay: Quercetin fluorescence enhancement assay, VvCHIL W221L; format: binding
Protocol: as §1

[4] = system: VvCHIL W221L; assay: as above; format: binding, Vitis vinifera; conditions: VvCHIL W221L, fluorescence
Protocol: as §1

[5] = biological target: T4, PpCHIL-A (Physcomitrium patens, UniProt A9T3E4); assay: Quercetin fluorescence enhancement assay, PpCHIL-A; format: binding, Physcomitrella patens; conditions: fluorescence enhancement of 10 μM quercetin, protein titrated, 25 °C, pH 8.0
Protocol: as §1

[6] = biological target: T5, VvCHIL (Vitis vinifera, UniProt F6HC36); assay: Quercetin fluorescence enhancement assay, VvCHIL; format: binding
Protocol: as §1

[7] = biological target: T5, VvCHIL; assay: Differential scanning fluorimetry (DSF) thermal shift, VvCHIL; format: binding; conditions: for effect on protein thermostability (thermal shift): high ligand concentration; for ΔTm: read-out: maximum thermal shift (ΔTmmax)
Description: (§2) Differential scanning fluorimetry (DSF) is a sensitive and label-free method for measuring the Tm of a protein, defined as the temperature at which 50% of a protein sample is unfolded ([21]). Positive Tm changes have been used to measure binding between a CHIL protein and chalcones ([15]). To elucidate a broader scope of CHIL–chalcone interactions, DSF was used to determine the thermal shifts that occur to VvCHIL and PpCHIL-A upon binding naturally occurring chalcones containing different substitution patterns (Fig. 1).
(§3) Assays were performed using SYPRO orange dye (1:625 dilution) and 6 μM CHIL protein against dilution series of (2R/2S)-naringenin (Sigma–Aldrich), NC, 2ʹ,4,4ʹ-trihydroxychalcone (Indofine), 2,2ʹ,4ʹ-trihydroxychalcone (Indofine), and quercetin (Thermo Scientific). Reactions were run in 20 μl reaction volumes and in a buffer containing 150 mM NaCl, 25 mM Tris (pH 8.0), 2 mM DTT, and 2% DMSO. Because of low solubility, 2% DMSO was used for all reactions to enhance ligand solubility. Experiments were performed on a QuantStudio 3 Real-Time PCR and analyzed using Protein ThermalShift software (Thermo Fisher Scientific). Replicates of two to four experiments were conducted for each condition, and GraphPad Prism 9 was used to fit maximum thermal shift (ΔTmmax) and apparent Kd values.

[8] = biological target: Chalcone isomerase-like protein from Vitis vinifera (VvCHIL) (Vitis vinifera); assay: SEC; HiPrep Sephacryl S-200 high-resolution column, 1 ml/min, 200 mM NaCl, 25 mM Tris pH 8.0, 2 mM DTT; His tags removed; masses against Bio-Rad standards
[9] = biological target: T3, VvCHIL W221L; assay: DSF thermal shift, VvCHIL W221L variant; format: binding
Protocol: as §3

[10] = biological target: HlCHIL1; set-up: method as in PMID 29760092; conditions: measured by DSF; ref [15]; cited from earlier work
[11] = biological target: T2, VvCHIL Q141A; assay: DSF thermal shift, VvCHIL Q141A variant; format: binding
Protocol: as §3

[12] = system: PpCHS–PpCHIL-A L188W; assay: Protein pull-down assay, strep-PpCHS and PpCHIL-A L188W; format: binding, P. patens; conditions: 4.3 mM ligand
Protocol: (§4) Protein pull-down assays were conducted using 1 mg of purified strep-tagged AtCHS or PpCHS and 0.3 ml StrepTactin Sepharose resin. The untagged purified VvCHIL or PpCHIL-A proteins was used as […] (0.5 mg). Binding reactions were incubated at room temperature either without ligand and 2% DMSO, or with the reported concentration of ligand and 2% DMSO. The StrepTactin resin was washed 4× with 1 ml of buffer in order to remove unbound protein prior to elution. Each wash buffer contained the reported concentration of ligand, 2% DMSO, 150 mM NaCl, 50 mM Tris (pH 8.0), and 2 mM DTT. Strep-CHS was eluted from the StrepTactin resin with 0.1 ml elution buffer, which contains 1 mM desthiobiotin, 2% DMSO, 150 mM NaCl, 50 mM Tris (pH 8.0), and 2 mM DTT. The pull-down assays were resolved using 15% acrylamide SDS-PAGE and native PAGE gels and imaged and quantified using Image Lab (Bio-Rad). About 50 mM of DTT was used in the native PAGE loading buffer.

[13] = system: VvCHIL–AtCHS binding; assay: Protein pull-down assay, strep-AtCHS and untagged VvCHIL; set-up: species or system Vitis vinifera / A. thaliana; conditions: for effect on VvCHIL–AtCHS binding: increasing ligand concentrations, 2% DMSO
Protocol: as §4

[14] = system: PpCHIL–PpCHS binding; assay: Protein pull-down assay, strep-PpCHS and untagged PpCHIL-A; set-up: species or system P. patens; conditions: 4.3 mM ligand
Protocol: as §4

[15] = biological target: T1, PpCHIL-A L188W; assay: DSF thermal shift, PpCHIL-A L188W variant; format: binding, Physcomitrella patens
Protocol: as §3

[16] = biological target: T4, PpCHIL-A; assay: Differential scanning fluorimetry (DSF) thermal shift, PpCHIL-A; format: binding, Physcomitrella patens; conditions: for ΔTm: read-out: maximum thermal shift (ΔTmmax); for difference of apparent Kd relative to NC: PpCHIL-A
Description: as §2, §3

[17] = biological target: T6, MsCHI-II (Medicago sativa, UniProt P28012); assay: Differential scanning fluorimetry (DSF) thermal shift, MsCHI-II; format: binding; conditions: pH 8.0, 2% DMSO, read-out: apparent Kd
T6 construct: His8 (thrombin-cleavable) (N, cleaved yes); made in house; host or cells: E. coli BL21 DE3-pRIL
T6 sequence (P28012 1-222): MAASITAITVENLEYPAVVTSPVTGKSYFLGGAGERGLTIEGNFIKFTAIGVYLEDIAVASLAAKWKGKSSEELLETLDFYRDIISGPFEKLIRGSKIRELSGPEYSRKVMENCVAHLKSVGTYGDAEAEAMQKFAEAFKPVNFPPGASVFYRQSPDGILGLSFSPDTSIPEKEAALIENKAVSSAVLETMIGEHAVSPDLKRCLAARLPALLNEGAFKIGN

[18] = fluorescence enhancement of quercetin
[19] = DSF, 6 μM protein, pH 8.0, 2% DMSO
[20] = DSF, single-site fit, 6 μM protein, pH 8.0, 2% DMSO, read-out: apparent Kd

T2 sequence (F6HC36 entry or part of it Q141A): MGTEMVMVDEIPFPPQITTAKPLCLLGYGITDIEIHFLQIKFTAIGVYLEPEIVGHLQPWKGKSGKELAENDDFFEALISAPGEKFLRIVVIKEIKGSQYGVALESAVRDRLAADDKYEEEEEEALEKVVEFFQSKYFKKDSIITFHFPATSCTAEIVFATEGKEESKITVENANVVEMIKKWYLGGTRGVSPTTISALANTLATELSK
T5 sequence (F6HC36 entry or part of it): as the sequence (F6HC36 entry or part of it Q141A) above, with A103Q counted along it
T1 sequence (A9T3E4 entry or part of it L188W): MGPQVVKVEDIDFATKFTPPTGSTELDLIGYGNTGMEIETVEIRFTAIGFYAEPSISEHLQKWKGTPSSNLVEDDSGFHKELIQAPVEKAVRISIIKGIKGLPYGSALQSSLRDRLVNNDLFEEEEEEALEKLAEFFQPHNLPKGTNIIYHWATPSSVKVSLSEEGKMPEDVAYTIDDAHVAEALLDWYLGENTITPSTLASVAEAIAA
T4 sequence (A9T3E4 entry or part of it): as the sequence (A9T3E4 entry or part of it L188W) above, with W188L counted along it
T3 sequence (F6HC36 entry or part of it W221L): as the sequence (F6HC36 entry or part of it Q141A) above, with A103Q, W183L counted along it

Molecule | effect on protein thermostability (thermal shift) ([7]; VvCHIL, DSF) | pull-down of PpCHIL-A L188W by PpCHS [12] | effect on VvCHIL–AtCHS binding [13] | PpCHIL-A in the strep-PpCHS–bound fraction [14] | ΔTm [7, 19] [°C] | Kd [7, 20] [µM] | Kd [15] [µM] | increase of apparent binding affinity over wildtype PpCHIL-A ([15]; PpCHIL-A L188W, DSF) | ΔTm [16, 19] [°C] | Kd [16, 20] [µM] | fold difference of apparent Kd relative to NC (NC smaller) ([7]; VvCHIL, DSF) | Kd [16] [µM] | difference of apparent Kd relative to NC ([16]; DSF) | other results
O=c1c(O)c(-c2ccc(O)c(O)c2)oc2cc(O)cc(O)c12 [quercetin] | destabilizes |  |  |  |  |  |  |  |  |  |  |  |  | reduction of binding affinity relative to wildtype PpCHIL-A ([1]; fluorescence): approximately twofold; Kd [1, 18]: 582 ± 282 µM; change of binding relative to wildtype VvCHIL ([2]; fluorescence): not significantly altered; Kd [2, 18]: 403 ± 59 µM; Kd [3]: 612 ± 167 µM; reduction of binding relative to wildtype VvCHIL [4]: approximately twofold; Kd [5]: 240 ± 121 µM; fraction of VvCHIL bound ([6]; 750 μM quercetin, based on the Kd value for VvCHIL): 0.68; Kd ([6]; fluorescence enhancement of 10 μM quercetin, protein titrated, 25 °C, pH 8.0): 347 ± 35 µM; ligand concentration that induces a negative thermal shift ([7]; VvCHIL, DSF): above 750 μM
Chalcone isomerase-like protein from Vitis vinifera (VvCHIL) (natural protein) |  |  |  |  |  |  |  |  |  |  |  |  |  | stoichiometry N [8]: 3
O=C(/C=C/c1ccc(O)cc1)c1c(O)cc(O)cc1O [NC, 2ʹ,4,4ʹ,6ʹ-tetrahydroxychalcone] |  | enhanced | enhances binding | strongly enriched | 3.5 ± 0.2 | 24 ± 5 | 18 ± 6 | approximately threefold | 1.7 ± 0.2 | 58 ± 16 |  |  |  | Kd [9]: 17 ± 4 µM; Kd [10]: 43 µM; ΔTmmax [10]: 6.4 °C; Kd [11]: 16 ± 2 µM
O=C(/C=C/c1ccc(O)cc1)c1ccc(O)cc1O [2ʹ,4,4ʹ-trihydroxychalcone] |  |  |  |  |  |  |  |  |  |  | approximately 5 fold | 41 ± 10 | does not bind with an appreciable difference | Kd [7]: 127 ± 51 µM
O=C1C[C@@H](c2ccc(O)cc2)Oc2cc(O)cc(O)c21 [naringenin] | reduced protein Tms at high naringenin concentrations | similarly in the presence and absence of naringenin | increasingly disrupted | observed in the bound fractions |  |  | 180 ± 81 | approximately fourfold |  |  |  | 762 ± 39 |  | Kd [17]: 1.02 mM and 1.05 mM; thermal destabilization by ligand ([9]; VvCHIL W221L, DSF): does not undergo thermal destabilization; thermal destabilization by ligand ([11]; VvCHIL Q141A, DSF): does not undergo thermal destabilization; VvCHIL band in the strep-AtCHS–bound fraction ([13]; 4.30 mM ligand): below the threshold of detection; reduction of thermal stabilization relative to wildtype PpCHIL-A ([15]; PpCHIL-A L188W, DSF): approximately 2 °C
O=C(/C=C/c1ccccc1O)c1ccc(O)cc1O [2,2ʹ,4ʹ-trihydroxychalcone] |  |  |  |  | 3.3 ± 0.7 | 286 ± 23 |  |  | 2.7 ± 0.2 | 85 ± 23 | ~11 fold |  | twofold greater | 
